This assay deals with HIV. As to the kind of experiment: Anti-HIV activity (MT-4 cells, MTT). The note with it: 50% HIV inhibition concentration, MT-4 cells infected with HIV, incubated 4 days, MTT readout. It is filed as cell-based. As for the experimental part: Previously, a series of two-fold dilution on test samples were carried out in a 96-well plate (50 μL/well). Two plates were made for measuring anti-HIV activity and measuring cytotoxicity. For each agent, measurement in duplicate was carried out. An MT-4 cell suspension of 2.5×10^5/mL was dispensed at 100 μL/well onto the 96-well plate containing the test samples. An HIV virus solution was dispensed at 50 μL/well onto the 96-well plate containing the test samples and the cell. To the plate for measuring cytotoxicity, a culture solution was dispensed at 50 μL/well. It was mixed by a plate mixer, and then incubated in a CO2 incubator for 4 days. […] Thirty microliters of a MTT (3-(4,5-dimethylthiazol-2-yl)-2,5-diphenyltetrazolium bromide) solution was dispensed to each well.
A reaction was allowed to occur in a CO2 incubator for an hour. From each well, 150 μL of the supernatant was removed such that cells are not sucked. One-hundred and fifty microliters of a cell lysis solution was added thereto, and then it was mixed well by a plate mixer until the whole cells are lysed. The mixed 96-well plates were measured by a microplate reader at two wavelengths, 560 nm/690 nm. Based on the following calculation formula, 50% HIV inhibition concentration (EC50) was calculated. EC50=10Z Z=(50%−Low %)/(High %−Low %)×{log(High conc.)−log(Low conc.)}+log(Low conc.) Based on the following calculation formula, 50% cytotoxic concentration (CC50) was calculated. CC50=10Z Z=(50%−Low %)/(High %−Low %)×{log(High conc.)−log(Low conc.)}+log(Low conc.) Based on the following calculation formula, selectivity index (ST) was calculated. SI=CC50/EC50 (Result)

[1] abbreviates: Human immunodeficiency virus 1, MT4, 96 h.

What is called EC50 is the midpoint of the concentration-response curve. A higher EC50 goes with a need for much substance. The compound `C[C@@H]1CCO[C@H]2Cn3cc(-c4cn(Cc5ccc(F)cc5F)cn4)c(=O)c(O)c3C(=O)N12` [Compound A-64] returned an EC50 under setting [1] of 1.6 nM.
Still for that read-out and setting: the result for `O=C1c2c(O)c(=O)c(-c3nnc(Cc4ccc(F)cc4F)s3)cn2C[C@H]2O[C@@H]3CC[C@@H](C3)N12` [Compound A-65] reads 4.2 nM.
`O=C1c2c(O)c(=O)c(-c3nnc(Cc4ccc(F)cc4F)s3)cn2C[C@@H]2O[C@H]3CC[C@H](C3)N12` [Compound A-66] showed a concentration for a half-maximal effect (EC50) under setting [1] of 7.2 nM.
Still for that read-out and setting: next, `COC[C@@H]1CCO[C@H]2Cn3cc(-c4nnc(Cc5ccc(F)cc5F)s4)c(=O)c(O)c3C(=O)N12` [Compound A-67]: 4.2 nM; `COC[C@@H]1CCN2C(=O)c3c(O)c(=O)c(-c4nnc(Cc5ccc(F)cc5F)s4)cn3C[C@@H]2O1` [Compound A-68]: 4.6 nM; `COC[C@H]1CCN2C(=O)c3c(O)c(=O)c(-c4nnc(Cc5ccc(F)cc5F)s4)cn3C[C@H]2O1` [Compound A-69]: 5.1 nM.
Still for that read-out and setting: next, `O=C1c2c(O)c(=O)c(-c3nnc(Cc4ccc(F)cc4F)s3)cn2C[C@H]2OCC[C@@H](C(F)(F)F)N12` [Compound A-70]: 8 nM; `C[C@@H]1CCO[C@H]2Cn3cc(-c4cc(Cc5ccc(F)cc5F)sn4)c(=O)c(O)c3C(=O)N12` [Compound A-71]: 9.3 nM.
Regarding `C[C@@H]1CCO[C@H]2Cn3cc(-c4cn(Cc5ccc(F)cc5F)nn4)c(=O)c(O)c3C(=O)N12` [Compound A-72], the concentration for a half-maximal effect (EC50) under setting [1] amounted to 8.5 nM.
On the same count and under the same terms, the result for `O=C1c2c(O)c(=O)c(-c3nnc(Cc4ccc(F)cc4F)s3)cn2C[C@H]2O[C@@H]3COC[C@@H]3N12` [Compound A-73] reads 5.7 nM; that for `O=C1c2c(O)c(=O)c(-c3nnc(Cc4ccc(F)cc4F)s3)cn2C[C@@H]2O[C@H]3COC[C@H]3N12` [Compound A-74], 12 nM.
Same read-out and setting: next, `COCc1cc(F)cc(F)c1Cc1nnc(-c2cn3c(c(O)c2=O)C(=O)N2[C@H](C)CCO[C@H]2C3)s1` [Compound A-75]: 10 nM; `C[C@@H]1CCS[C@H]2Cn3cc(-c4nnc(Cc5ccc(F)cc5F)s4)c(=O)c(O)c3C(=O)N12` [Compound A-76]: 4.7 nM.
The same measure, in the same setting: the result for `C[C@@H]1N2C(=O)c3c(O)c(=O)c(-c4nnc(Cc5ccc(F)cc5F)s4)cn3C[C@H]2OCC1(F)F` [Compound A-77] reads 7.2 nM; that for `C[C@H]1N2C(=O)c3c(O)c(=O)c(-c4nnc(Cc5ccc(F)cc5F)s4)cn3C[C@@H]2OCC1(F)F` [Compound A-78], 4.6 nM; that for `C[C@@H]1CCO[C@H]2Cn3cc(-c4cc(Cc5ccc(F)cc5F)n(C)n4)c(=O)c(O)c3C(=O)N12` [Compound A-79], 15 nM.
`Cc1nc(-c2cn3c(c(O)c2=O)C(=O)N2[C@H](C)CCO[C@H]2C3)sc1Cc1cccc(Cl)c1F` [Compound A-80] yielded an EC50 under setting [1] of 6.3 nM.
On to `O=C1c2c(O)c(=O)c(-c3nnc(Cc4ccc(F)cc4F)s3)cn2C[C@@H]2CCCCN12` [Compound B-1], for which the EC50 was determined as 2.9 nM.
For the compound `O=C1c2c(O)c(=O)c(-c3nnc(Cc4ccc(F)cc4F)s3)cn2C[C@H]2CCCCN12` [Compound B-2], a half-maximal effect under setting [1] (EC50) was put at 3.9 nM.
Still for that read-out and setting: next, `O=C1c2c(O)c(=O)c(-c3nnc(Cc4ccc(F)cc4F)s3)cn2C[C@H]2CCCN12` [Compound B-3]: 3.7 nM; `O=C1c2c(O)c(=O)c(-c3nnc(Cc4cccc(Cl)c4F)s3)cn2C[C@H]2CCCN12` [Compound B-4]: 5.5 nM; `O=C1c2c(O)c(=O)c(-c3nnc(Cc4cccc(Cl)c4F)s3)cn2C[C@H]2CCCCN12` [Compound B-5]: 6.7 nM.
Still for that read-out and setting: next, `O=C1c2c(O)c(=O)c(-c3nnc(Cc4cccc(Cl)c4F)s3)cn2C[C@@H]2CCCCN12` [Compound B-6]: 7.5 nM; `O=C1c2c(O)c(=O)c(-c3nnc(Cc4c(F)cc(F)cc4F)s3)cn2C[C@H]2CCCCN12` [Compound B-7]: 2.9 nM; `O=C1c2c(O)c(=O)c(-c3nnc(Cc4c(F)cc(F)cc4F)s3)cn2C[C@@H]2CCCCN12` [Compound B-8]: 3.8 nM.
Consider `O=C1c2c(O)c(=O)c(-c3nnc(Cc4ccc(F)cc4F)s3)cn2C[C@@H]2[C@@H]3C[C@@H]3CN12` [Compound B-9], for which the response under setting [1] was half-maximal at 2 nM (EC50).
`O=C1c2c(O)c(=O)c(-c3nnc(Cc4ccc(F)cc4F)s3)cn2C[C@@H]2COCCN12` [Compound B-10] had an EC50 under setting [1] of 10 nM.
Still for that read-out and setting: next, `O=C1c2c(O)c(=O)c(-c3nnc(Cc4ccc(F)cc4F)s3)cn2C[C@H]2COCCN12` [Compound B-11]: 5.9 nM; `O=C1c2c(O)c(=O)c(-c3ncc(Cc4ccc(F)cc4F)s3)cn2C[C@@H]2CCCN12` [Compound B-13]: 7.7 nM; `O=C1c2c(O)c(=O)c(-c3ncc(Cc4cccc(Cl)c4F)s3)cn2C[C@@H]2CCCN12` [Compound B-14]: 10 nM.
The same measure, in the same setting: next, `O=C1c2c(O)c(=O)c(-c3ncc(Cc4ccc(F)cc4F)s3)cn2C[C@H]2CCCN12` [Compound B-15]: 4 nM; `O=C1c2c(O)c(=O)c(-c3ncc(Cc4ccc(F)cc4F)s3)cn2C[C@H]2CCCCN12` [Compound B-16]: 7.7 nM; `O=C1c2c(O)c(=O)c(-c3ncc(Cc4cccc(Cl)c4F)s3)cn2C[C@H]2CCCN12` [Compound B-17]: 5.3 nM.
The same measure, in the same setting: next, `O=C1c2c(O)c(=O)c(-c3ncc(Cc4cccc(Cl)c4F)s3)cn2C[C@H]2CCCCN12` [Compound B-18]: 14 nM; `O=C1c2c(O)c(=O)c(-c3ncc(Cc4cccc(Cl)c4F)s3)cn2C[C@@H]2CCCCN12` [Compound B-19]: 18 nM; `O=C1c2c(O)c(=O)c(-c3nnc(Cc4ccc(F)cc4F)s3)cn2C[C@@H]2C[C@@H](F)CCN12` [Compound B-21]: 4 nM.
With `O=C1c2c(O)c(=O)c(-c3nnc(Cc4ccc(F)cc4F)s3)cn2C[C@@H]2[C@H]3CC[C@H](C3)N12` [Compound B-22], a half-maximal effect under setting [1] (EC50) was put at 3.5 nM.
Still for that read-out and setting: next, `CCN1CN(CCOC)C(=O)c2c(O)c(=O)c(-c3nnc(Cc4ccc(F)cc4F)s3)cn21` [Compound C-2]: 1.4 nM; `COCCN1CN(C)n2cc(-c3nnc(Cc4ccc(F)cc4F)s3)c(=O)c(O)c2C1=O` [Compound C-3]: 1.1 nM; `CCN1CN(CCOC)C(=O)c2c(O)c(=O)c(-c3nnc(Cc4cccc(Cl)c4F)s3)cn21` [Compound C-4]: 2.1 nM.
In turn, `CCN1CN([C@H](C)C(F)(F)F)C(=O)c2c(O)c(=O)c(-c3nnc(Cc4ccc(F)cc4F)s3)cn21` [Compound C-5] displayed an EC50 under setting [1] of 3.4 nM.
The same measure, in the same setting: the result for `CCN1CN([C@H](C)C(F)(F)F)C(=O)c2c(O)c(=O)c(-c3nnc(Cc4cccc(Cl)c4F)s3)cn21` [Compound C-6] reads 5.7 nM; that for `CCN1CN(CCCOC)C(=O)c2c(O)c(=O)c(-c3nnc(Cc4ccc(F)cc4F)s3)cn21` [Compound C-7], 2 nM.
In the case of `CCN1CN(CCCOC)C(=O)c2c(O)c(=O)c(-c3nnc(Cc4cccc(Cl)c4F)s3)cn21` [Compound C-8], a half-maximal response under setting [1] (EC50) required 2.4 nM.
`CCN1CN(CCOC)C(=O)c2c(O)c(=O)c(-c3ncc(Cc4ccc(F)cc4F)s3)cn21` [Compound C-10] registered a 50% effective concentration (EC50) of 5.8 nM.
`COCCN1CN(C)n2cc(-c3ncc(Cc4ccc(F)cc4F)s3)c(=O)c(O)c2C1=O` [Compound C-13] showed a concentration for a half-maximal effect (EC50) under setting [1] of 2.7 nM.
